Biological target: T1, HMGB1 (HMGB1-His) (Homo sapiens, UniProt P09429)
T1 sequence (P09429 1-215): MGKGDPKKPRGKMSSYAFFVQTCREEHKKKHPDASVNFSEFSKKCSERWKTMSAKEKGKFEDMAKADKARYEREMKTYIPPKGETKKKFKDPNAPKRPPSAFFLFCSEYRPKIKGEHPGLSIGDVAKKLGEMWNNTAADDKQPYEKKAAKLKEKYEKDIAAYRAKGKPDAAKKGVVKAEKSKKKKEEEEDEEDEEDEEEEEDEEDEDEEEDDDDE
Assay: microscale thermophoresis
Format: binding

- Kd: 65.5 µM
SMILES: CN1CCN(c2ccc(C(=O)Nc3n[nH]c4ccc(Cc5cc(F)cc(F)c5)cc34)c(NC3CCOCC3)c2)CC1 [entrectinib]
